According to patent publication US7943575B2, “Sustained release drug formulations containing a carrier peptide” (Ipsen Pharma S.A.S., priority 2002, dated 2011):
Like-named read-outs stand apart in the source and are kept apart here.

Assay: Pharmacokinetic profile of a SOMATULINE/DECAPEPTYL composition in beagle dogs (RIA of blood samples)
Type: in vivo
Text: Once a particular peptide or peptide salt is found to gel in an in vitro assay, e.g., an assay as described above, an in vivo assay can be used to determine the suitability of that peptide salt for use as a sustained-release carrier peptide of a therapeutic agent or agents in animals or humans. A blood level release profile for the carrier peptide and/or the therapeutic agent or agents can be determined by injecting the composition into an animal, e.g., a Sprague Dawley rat, a dog, etc., and testing blood samples taken at specific time intervals, e.g., hourly intervals over 1 to 5 days, or 12 or 24 hour intervals over 5 to 45 days, for the concentration of the peptide and/or therapeutic agent or agents. The suitability of a particular peptide gel, or a peptide/carrier gel, for therapeutic delivery of the carrier peptide and/or therapeutic agent or agents can thus be determined.
Generally, in such an assay animals are anaesthetized with pentobarbital (60 mg/kg i.p. for rats), and a jugular vein is cannulated for blood sampling. A test semisolid suspension or solid composition (or standard solution for comparison purposes), e.g., a SOMATULINE/DECAPEPTYL mixture, is injected subcutaneously at a specific dosage, e.g., 1.0, 3.0, or 6.0 mg/kg of SOMATULINE. After administration of the composition or solution, heparinized blood samples are obtained through the cannula at set time intervals, and plasma is separated after centrifugation. The amount of carrier peptide and/or therapeutic agent(s) in the plasma samples is/are determined by, e.g., a standard radioimmunoassay (RIA) technique that allows a direct measurement of the carrier peptide and/or therapeutic agent(s) without extraction from the rat plasma. The resulting data are plotted (e.g., blood concentration (ng/ml) vs. time) to establish a blood level release profile.
0.15 ml of the foregoing semisolid mixture from Example 1 was loaded into a 0.3 ml insulin syringe and was injected into beagle dogs. Blood samples were collected and standard radioimmunoassay (RIA) analysis was performed thereon.

With CC(C)C[C@H](NC(=O)[C@@H](Cc1c[nH]c2ccccc12)NC(=O)[C@H](Cc1ccc(O)cc1)NC(=O)[C@H](CO)NC(=O)[C@H](Cc1c[nH]c2ccccc12)NC(=O)[C@H](Cc1c[nH]cn1)NC(=O)[C@@H]1CCC(=O)N1)C(=O)N[C@@H](CCCNC(=N)N)C(=O)N1CCC[C@H]1C(=O)NCC(N)=O [DECAPEPTYL] the level at 0.24 h (beagle, dog, in vivo, 0.15 ml) was 2.66 ng/mL, the level at 0.48 h (beagle, dog, in vivo, 0.15 ml) was 6.04 ng/mL and the level at 0.96 h (beagle, dog, in vivo, 0.15 ml) was 9.97 ng/mL. For the same compound, the level at 1.92 h (beagle, dog, in vivo, 0.15 ml) was 16.4 ng/mL, the level at 4.08 h (beagle, dog, in vivo, 0.15 ml) was 17.3 ng/mL and the level at 6 h (beagle, dog, in vivo, 0.15 ml) was 21.2 ng/mL. The level at 9.12 h (beagle, dog, in vivo, 0.15 ml) was 23.1 ng/mL, the level at 24 h (beagle, dog, in vivo, 0.15 ml) was 8.11 ng/mL and the level at 47.76 h (beagle, dog, in vivo, 0.15 ml) was 3.97 ng/mL. For the same compound, the level at 72.48 h (beagle, dog, in vivo, 0.15 ml) was 3.16 ng/mL, the level at 144.96 h (beagle, dog, in vivo, 0.15 ml) was 1.35 ng/mL and the level at 192.96 h (beagle, dog, in vivo, 0.15 ml) was 0.94 ng/mL. It also gave a level at 241.44 h (beagle, dog, in vivo, 0.15 ml) of 0.5 ng/mL, a level at 312.96 h (beagle, dog, in vivo, 0.15 ml) of 0.42 ng/mL and a level at 361.2 h (beagle, dog, in vivo, 0.15 ml) of 0.32 ng/mL. The level at 408.48 h (beagle, dog, in vivo, 0.15 ml) was 0.24 ng/mL, the level at 483.36 h (beagle, dog, in vivo, 0.15 ml) was 0.19 ng/mL and the level at 528.96 h (beagle, dog, in vivo, 0.15 ml) was 0.13 ng/mL. The level at 577.44 h (beagle, dog, in vivo, 0.15 ml) was 0.11 ng/mL, the level at 650.88 h (beagle, dog, in vivo, 0.15 ml) was 0.07 ng/mL and the “duration of sustained release of therapeutic levels in the blood” value (dog, in vivo) was “one month or longer”.
Compound CC(C)[C@@H]1NC(=O)[C@H](CCCCN)NC(=O)[C@@H](Cc2c[nH]c3ccccc23)NC(=O)[C@H](Cc2ccc(O)cc2)NC(=O)[C@@H](NC(=O)[C@H](N)Cc2ccc3ccccc3c2)CSSC[C@@H](C(=O)N[C@H](C(N)=O)[C@@H](C)O)NC1=O [SOMATULINE, lanreotide] has a level at 0 h (dog, in vivo, TIME 0.00 days, beagle dogs, 0.15 ml Example 1 semisolid mixture injected, read-out: concentration in blood samples (RIA)) of 0.02 ng/mL, a level at 0.24 h (dog, in vivo, TIME 0.01 days, beagle dogs, 0.15 ml Example 1 semisolid mixture injected, read-out: concentration in blood samples (RIA)) of 3.91 ng/mL and a level at 0.48 h (dog, in vivo, TIME 0.02 days, beagle dogs, 0.15 ml Example 1 semisolid mixture injected, read-out: concentration in blood samples (RIA)) of 7.29 ng/mL. It also gave a level at 0.96 h (dog, in vivo, TIME 0.04 days, beagle dogs, 0.15 ml Example 1 semisolid mixture injected, read-out: concentration in blood samples (RIA)) of 9.34 ng/mL, a level at 1.92 h (dog, in vivo, TIME 0.08 days, beagle dogs, 0.15 ml Example 1 semisolid mixture injected, read-out: concentration in blood samples (RIA)) of 12.6 ng/mL and a level at 4.08 h (dog, in vivo, TIME 0.17 days, beagle dogs, 0.15 ml Example 1 semisolid mixture injected, read-out: concentration in blood samples (RIA)) of 17.3 ng/mL. The level at 6 h (dog, in vivo, TIME 0.25 days, beagle dogs, 0.15 ml Example 1 semisolid mixture injected, read-out: concentration in blood samples (RIA)) was 19.5 ng/mL, the level at 9.12 h (dog, in vivo, TIME 0.38 days, beagle dogs, 0.15 ml Example 1 semisolid mixture injected, read-out: concentration in blood samples (RIA)) was 17.8 ng/mL and the level at 24 h (dog, in vivo, TIME 1.00 days, beagle dogs, 0.15 ml Example 1 semisolid mixture injected, read-out: concentration in blood samples (RIA)) was 11.4 ng/mL. It also gave a level at 47.76 h (dog, in vivo, TIME 1.99 days, beagle dogs, 0.15 ml Example 1 semisolid mixture injected, read-out: concentration in blood samples (RIA)) of 9.51 ng/mL, a level at 72.48 h (dog, in vivo, TIME 3.02 days, beagle dogs, 0.15 ml Example 1 semisolid mixture injected, read-out: concentration in blood samples (RIA)) of 7.77 ng/mL and a level at 144.96 h (dog, in vivo, TIME 6.04 days, beagle dogs, 0.15 ml Example 1 semisolid mixture injected, read-out: concentration in blood samples (RIA)) of 6.63 ng/mL. It also gave a level at 192.96 h (dog, in vivo, TIME 8.04 days, beagle dogs, 0.15 ml Example 1 semisolid mixture injected, read-out: concentration in blood samples (RIA)) of 5.99 ng/mL, a level at 241.44 h (dog, in vivo, TIME 10.06 days, beagle dogs, 0.15 ml Example 1 semisolid mixture injected, read-out: concentration in blood samples (RIA)) of 4.88 ng/mL and a level at 312.96 h (dog, in vivo, TIME 13.04 days, beagle dogs, 0.15 ml Example 1 semisolid mixture injected, read-out: concentration in blood samples (RIA)) of 3.14 ng/mL. For the same compound, the level at 361.2 h (dog, in vivo, TIME 15.05 days, beagle dogs, 0.15 ml Example 1 semisolid mixture injected, read-out: concentration in blood samples (RIA)) was 2.54 ng/mL, the level at 408.48 h (dog, in vivo, TIME 17.02 days, beagle dogs, 0.15 ml Example 1 semisolid mixture injected, read-out: concentration in blood samples (RIA)) was 1.85 ng/mL and the level at 483.36 h (dog, in vivo, TIME 20.14 days, beagle dogs, 0.15 ml Example 1 semisolid mixture injected, read-out: concentration in blood samples (RIA)) was 1.46 ng/mL. For the same compound, the level at 528.96 h (dog, in vivo, TIME 22.04 days, beagle dogs, 0.15 ml Example 1 semisolid mixture injected, read-out: concentration in blood samples (RIA)) was 1.3 ng/mL, the level at 577.44 h (dog, in vivo, TIME 24.06 days, beagle dogs, 0.15 ml Example 1 semisolid mixture injected, read-out: concentration in blood samples (RIA)) was 1.11 ng/mL and the level at 650.88 h (dog, in vivo, TIME 27.12 days, beagle dogs, 0.15 ml Example 1 semisolid mixture injected, read-out: concentration in blood samples (RIA)) was 0.65 ng/mL. The level at 698.64 h (dog, in vivo, TIME 29.11 days, beagle dogs, 0.15 ml Example 1 semisolid mixture injected, read-out: concentration in blood samples (RIA)) was 0.52 ng/mL, the level at 745.2 h (dog, in vivo, TIME 31.05 days, beagle dogs, 0.15 ml Example 1 semisolid mixture injected, read-out: concentration in blood samples (RIA)) was 0.52 ng/mL and the level at 818.64 h (dog, in vivo, TIME 34.11 days, beagle dogs, 0.15 ml Example 1 semisolid mixture injected, read-out: concentration in blood samples (RIA)) was 0.5 ng/mL. It also gave a level at 866.88 h (dog, in vivo, TIME 36.12 days, beagle dogs, 0.15 ml Example 1 semisolid mixture injected, read-out: concentration in blood samples (RIA)) of 0.45 ng/mL, a level at 912.72 h (dog, in vivo, TIME 38.03 days, beagle dogs, 0.15 ml Example 1 semisolid mixture injected, read-out: concentration in blood samples (RIA)) of 0.34 ng/mL and a level at 984.72 h (dog, in vivo, TIME 41.03 days, beagle dogs, 0.15 ml Example 1 semisolid mixture injected, read-out: concentration in blood samples (RIA)) of 0.27 ng/mL. The level at 1082.4 h (dog, in vivo, TIME 45.10 days, beagle dogs, 0.15 ml Example 1 semisolid mixture injected, read-out: concentration in blood samples (RIA)) was 0.17 ng/mL, the level at 1160.64 h (dog, in vivo, TIME 48.36 days, beagle dogs, 0.15 ml Example 1 semisolid mixture injected, read-out: concentration in blood samples (RIA)) was 0.14 ng/mL and the level at 1199.76 h (dog, in vivo, TIME 49.99 days, beagle dogs, 0.15 ml Example 1 semisolid mixture injected, read-out: concentration in blood samples (RIA)) was 0.15 ng/mL. It also gave a level at 1248.24 h (dog, in vivo, TIME 52.01 days, beagle dogs, 0.15 ml Example 1 semisolid mixture injected, read-out: concentration in blood samples (RIA)) of 0.21 ng/mL, a level at 1368.96 h (dog, in vivo, TIME 57.04 days, beagle dogs, 0.15 ml Example 1 semisolid mixture injected, read-out: concentration in blood samples (RIA)) of 0.14 ng/mL and a level at 1417.92 h (dog, in vivo, TIME 59.08 days, beagle dogs, 0.15 ml Example 1 semisolid mixture injected, read-out: concentration in blood samples (RIA)) of 0.27 ng/mL. It also gave a level at 1536.48 h (dog, in vivo, TIME 64.02 days, beagle dogs, 0.15 ml Example 1 semisolid mixture injected, read-out: concentration in blood samples (RIA)) of 0.21 ng/mL, a level at 1584.48 h (dog, in vivo, TIME 66.02 days, beagle dogs, 0.15 ml Example 1 semisolid mixture injected, read-out: concentration in blood samples (RIA)) of 0.2 ng/mL and a level at 1656.24 h (dog, in vivo, TIME 69.01 days, beagle dogs, 0.15 ml Example 1 semisolid mixture injected, read-out: concentration in blood samples (RIA)) of 0.16 ng/mL. The level at 1707.6 h (dog, in vivo, TIME 71.15 days, beagle dogs, 0.15 ml Example 1 semisolid mixture injected, read-out: concentration in blood samples (RIA)) was 0.15 ng/mL and the “duration of sustained release of therapeutic levels in the blood” value (gel with SOMATULINE as carrier peptide and DECAPEPTYL as therapeutic agent, see Example 1) was “one month or longer”.
